Test results as given in publication PMC10065799, “High-throughput profiling of sequence recognition by tyrosine kinases and SH2 domains using bacterial peptide display” (eLife, 2023).

Key:
[1] = biological target: c-Src kinase domain (Homo sapiens, UniProt P12931); experiment: pTyr-Var library bacterial peptide display kinase screen (enrichment scores); type: biochemical
[2] = tested on: Fyn kinase domain; experiment: as above; type: biochemical, human
[3] = tested on: Hck kinase domain; experiment: as above; type: biochemical, human
[4] = biological target: T1, c-Abl kinase domain (Mus musculus, UniProt P00520); experiment: as above; type: biochemical
T1 sequence (P00520 242-493 limits assumed): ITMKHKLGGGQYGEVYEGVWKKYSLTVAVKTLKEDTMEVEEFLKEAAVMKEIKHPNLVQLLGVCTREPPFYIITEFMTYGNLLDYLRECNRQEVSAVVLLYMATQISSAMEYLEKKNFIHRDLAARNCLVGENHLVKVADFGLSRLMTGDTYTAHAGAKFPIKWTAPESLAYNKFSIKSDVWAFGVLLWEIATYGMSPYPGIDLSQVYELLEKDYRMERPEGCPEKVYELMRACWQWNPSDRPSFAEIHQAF

[5] = tested on: Jak2; experiment: as above; type: biochemical, human
[6] = tested on: AncSZ kinase domain; experiment: as above; type: biochemical
[7] = tested on: Fer kinase domain; experiment: as above; type: biochemical, mouse
[8] = tested on: Fes; experiment: as above; type: biochemical; conditions: mean of log2 of enrichment over R1-R6
[9] = tested on: FGFR1 kinase domain; experiment: as above; type: biochemical, human
[10] = tested on: FGFR3 kinase domain; experiment: as above; type: biochemical, human
[11] = tested on: EPHB1 kinase domain; experiment: as above; type: biochemical, human
[12] = tested on: EPHB2 kinase domain; experiment: as above; type: biochemical, human
[13] = tested on: MERTK kinase domain; experiment: as above; type: biochemical, human
[14] = tested on: 4G10 Platinum pan-phosphotyrosine antibody; experiment: Phosphorylated pTyr-Var library selection with biotinylated pan-phosphotyrosine antibody; type: binding, mouse; conditions: enrichment score, sheet SH2-vs-peptide
Protocol: After the desired time of library phosphorylation, kinase activity was quenched with 25 mM EDTA and the cells were washed with PBS containing 0.2% BSA. Kinase-treated cells were then labeled with a 1:1000 dilution of biotinylated 4G10 Platinum anti-phosphotyrosine antibody (Millipore) for an hour on ice and washed with PBS containing 0.1% BSA and 2 mM EDTA (isolation buffer). The cells were finally resuspended in PBS containing 0.1% BSA. The phosphorylated, antibody-labeled cells were then mixed with magnetic beads from Dynabeads FlowComp Flexi kit (Invitrogen), at a ratio of 37.5 μL of washed beads per 50 μL of cell suspension, diluted into 450 μL of isolation buffer. The suspension was rotated at 4 °C for 30 minutes, then 375 μL of isolation buffer was added and the beads were separated from the bulk solution on a magnetic rack. The beads were washed once with 1 mL of isolation buffer, and then the supertantant were removed by aspiration. […] The bead/lysate mixture was centrifuged to pellet the beads and the mixture was stored at -20 °C.

[15] = biological target: c-Src SH2 domain (Homo sapiens, UniProt P12931); experiment: pTyr-Var library SH2 domain screen with SH2-dynabeads (enrichment scores); conditions: sheet c-Src
[16] = tested on: SHP2 C-SH2 domain; experiment: as above
[17] = tested on: Grb2 SH2 domain; experiment: as above
[18] = mean of log2 of enrichment over R1-R4
[19] = pTyr-Var library, enrichment score, replicate 1
[20] = pTyr-Var library, enrichment score, replicate 3
[21] = pTyr-Var library, enrichment score, replicate 4
[22] = mean of log2 enrichment of reference peptide, n = 5
[23] = pTyr-Var library, reference peptide enrichment, mean of n = 5
[24] = mean of log2 enrichment of reference peptide, n = 4
[25] = pTyr-Var library, reference peptide enrichment, mean of n = 4

## DRVALYIAREG [AACS_Y117]
[1]; [18]
  c-Src mean of log2(enrichment): -1.224
[1]; [19]
  c-Src enrich. R1: 0.458
[1]; [20]
  c-Src enrich. R3: 0.3437
[1]; [21]
  c-Src enrich. R4: 0.4348
[2]; [18]
  Fyn mean of log2(enrichment): -1.315
[2]; [19]
  Fyn enrich. R1: 0.792
[2]; [20]
  Fyn enrich. R3: 0.3214
[2]; [21]
  Fyn enrich. R4: 0.1749
[3]; mean of log2(variant) / mean of log2(reference), R1-R4
  Hck mean of log2(enrichment): 0.5689
[3]; [19]
  Hck enrich. R1: 0.9245
[3]; [20]
  Hck enrich. R3: 0.4813
[3]; [21]
  Hck enrich. R4: 0.2133
[4]; [18]
  c-Abl mean of log2(enrichment): -0.4566
[4]; [19]
  c-Abl enrich. R1: 0.7622
[4]; [20]
  c-Abl enrich. R3: 0.701
[4]; [21]
  c-Abl enrich. R4: 0.6553
[5]; mean of log2 of enrichment over R1-R3
  Jak2 mean of log2(enrichment): 0.02155
[5]; [19]
  Jak2 enrich. R1: 0.9714
[5]; [20]
  Jak2 enrich. R3: 1.09
[6]; mean of log2 of enrichment over R1-R5
  AncSZ mean of log2(enrichment): -0.07806
[6]; [19]
  AncSZ enrich. R1: 1.096
[6]; [20]
  AncSZ enrich. R3: 1.043
[6]; [21]
  AncSZ enrich. R4: 0.9321
[6]; pTyr-Var library, enrichment score, replicate 5
  AncSZ enrich. R5: 0.7233
[7]; [18]
  Fer mean of log2(enrichment): -1.082
[7]; [19]
  Fer enrich. R1: 0.5665
[7]; [20]
  Fer enrich. R3: 0.4786
[7]; [21]
  Fer enrich. R4: 0.5652
[8]
  Fes mean of log2(enrichment): 0.1816
[9]; [22]
  mean of log2(reference): -0.9619
[9]; [23]
  ref. mean: 0.5188
[10]; [22]
  mean of log2(reference): -0.5381
[10]; [23]
  ref. mean: 0.7165
[11]; [24]
  mean of log2(reference): -0.6213
[11]; [25]
  ref. mean: 0.6707
[12]; [24]
  mean of log2(reference): -0.9971
[12]; [25]
  ref. mean: 0.5335
[13]; [24]
  mean of log2(reference): -1.387
[13]; [25]
  ref. mean: 0.3952
[14]
  4G10 (mean): 0.8696
[15]; mean of log2 enrichment of reference peptide, R1-R3
  mean of log2(reference): -1.13
[15]; reference peptide, mean of R1-R3
  ref. mean: 0.4875
[16]; SHP2-C SH2, mean of log2 enrichment of reference, R1-R3
  mean of log2(reference): -0.1513
[16]; reference peptide enrichment score, SHP2-C SH2, mean of R1-R3
  ref. mean: 0.928
[17]; Grb2 SH2, mean of log2 enrichment of reference, R1-R3
  mean of log2(reference): -0.1768
[17]; reference peptide enrichment score, Grb2 SH2, mean of R1-R3
  ref. mean: 0.8958
